Earlier results in PubChem BioAssay AID1259409 (Chemical Carcinogenesis Research Information System (CCRIS), 2018).

System: rodent chemically induced tumor inhibition, incidence and multiplicity
Assay: CCRIS tumor inhibitor studies
Conditions: for tumour outcome (control, treated, inhibition, significance): Promoter: NONE USED; for outcome: Carcinogen: 7,12-Dimethylbenz[a]anthracene, 57-97-6 and 12-O-Tetradecanoylphorbol-13-acetate, 16561-29-8, Dose [Inhibitor]: 50 ug/ml in acetone by topical application starting on the 16th wk and continuing to end of study (study duration: 30 wk, Route [Inhibitor]: Skin, Species: Mouse, Strain/Sex: Albino/Sex not given, Target Tissue: Type of Lesion: Skin, Dose [Carcinogen]: DMBA in acetone, 100 ug/ml, single topical dose, TPA in acetone, 10 ug/ml, topical administration twice a wk for 15 wk
Description: The CCRIS database contains chemical records with carcinogenicity, mutagenicity, tumor promotion, and tumor inhibition test results. It was developed by the National Cancer Institute (NCI). Data are derived from studies cited in primary journals, current awareness tools, NCI reports, and other sources. Test results have been reviewed by experts in carcinogenesis and mutagenesis.
CCRIS provides historical information from the years 1985 - 2011. It is no longer updated.
This is an archive assay for CCRIS tumor inhibitor studies.

## CC1=C(/C=C/C(C)=C/C=C/C(C)=C\C(=O)O)C(C)(C)CCC1
Carcinogen: 1,2-DIMETHYLHYDRAZINE, 540-73-8, Dose [Inhibitor]: 67 µM/G DIET, Route [Inhibitor]: ORAL, Species: RAT, Strain/Sex: SPRAGUE-DAWLEY/MALE, Target Tissue: Type of Lesion: COLON: TUMOR, Dose [Carcinogen]: 30 MG/KG BW 1/WK FOR 5 WK
  tumour outcome (control, treated, inhibition, significance): 20/20 (100%), 8/20 (40%), 60%, not calculated
Carcinogen: 1,2-DIMETHYLHYDRAZINE, 5400-73-8, Dose [Inhibitor]: 67 UG/G DIET FED SIMULTANEOUSLY DURING CARCINOGEN TREATMENT (STUDY DURATION: 46 WK), Route [Inhibitor]: ORAL, Species: RAT, Strain/Sex: WISTAR/FEMALE, Target Tissue: Type of Lesion: COLON: ADENOCARCINOMA, Dose [Carcinogen]: 15 MG/KG BW/WK FOR 28 WK
  tumour outcome (control, treated, inhibition, significance): 8/12 (67%), 5/10 (50%), 25%, not significant
Carcinogen: 1,2-DIMETHYLHYDRAZINE, 5400-73-8, Dose [Inhibitor]: 67 UG/G DIET FED SIMULTANEOUSLY DURING CARCINOGEN TREATMENT (STUDY DURATION: 46 WK), Route [Inhibitor]: ORAL, Species: RAT, Strain/Sex: WISTAR/FEMALE, Target Tissue: Type of Lesion: SMALL INTESTINE: ADENOCARCINOMA, Dose [Carcinogen]: 15 MG/KG BW/WK FOR 28 WK
  tumour outcome (control, treated, inhibition, significance): 8/12 (67%), 9/10 (90%), -34%, not significant
Carcinogen: 3-METHYLCHOLANTHRENE, 56-49-5, Dose [Inhibitor]: 3 MG IN 0.1 ML ACETONE STARTING 2 WK AFTER START OF CARCINOGEN TREATMENT AND APPLIED 2/WK DURING WK 3-5 OF THE STUDY AND, Route [Inhibitor]: DERMAL, Species: MOUSE, Strain/Sex: SWISS/FEMALE, Target Tissue: Type of Lesion: SKIN: CARCINOMA, Dose [Carcinogen]: 0.1 ML OF 0.3% DISSOLVED IN ACETONE APPLIED 2/WK FIRST 5 WK THEN 1/WK FOR WK 6-9 FOLLOWED BY NO FURTHER TREATMENT THROUG
  tumour outcome (control, treated, inhibition, significance): 5/19 (26%), 2/20 (10%), 62%, not calculated
Carcinogen: 3-METHYLCHOLANTHRENE, 56-49-5, Dose [Inhibitor]: 3 MG IN 0.1 ML ACETONE STARTING 2 WK AFTER START OF CARCINOGEN TREATMENT AND APPLIED 2/WK DURING WK 3-5 OF THE STUDY AND, Route [Inhibitor]: DERMAL, Species: MOUSE, Strain/Sex: SWISS/FEMALE, Target Tissue: Type of Lesion: SKIN: PAPILLOMA, Dose [Carcinogen]: 0.1 ML OF 0.3% DISSOLVED IN ACETONE APPLIED 2/WK FIRST 5 WK THEN 1/WK FOR WK 6-9 FOLLOWED BY NO FURTHER TREATMENT THROUG
  tumour outcome (control, treated, inhibition, significance): 9/19 (47%), 4/20 (20%), 57%, not calculated
  outcome: malignant lesions: 4/20 (20%), 4/20 (20%), not significant
Promoter: None
  outcome: malignant lesions: 5/20 (20%), 4/20 (20%), not significant
Carcinogen: AZOXYMETHANE, 25843-45-2, Dose [Inhibitor]: 50 MG/KG DIET DAILY STARTING SIMULTANEOUSLY WITH CARCINOGEN TREATMENT AND CONTINUING THROUGH END OF STUDY (STUDY DURATIO, Route [Inhibitor]: ORAL, Species: RAT, Strain/Sex: SPRAGUE-DAWLEY/MALE, Target Tissue: Type of Lesion: LARGE INTESTINE: MALIGNANT TUMOR, Dose [Carcinogen]: 8 MG/KG BW 1/WK FOR 8 WK
  tumour outcome (control, treated, inhibition, significance): 90%, 90%, 0%, not significant
Carcinogen: AZOXYMETHANE, 25843-45-2, Dose [Inhibitor]: 50 MG/KG DIET DAILY STARTING SIMULTANEOUSLY WITH CARCINOGEN TREATMENT AND CONTINUING THROUGH END OF STUDY (STUDY DURATIO, Route [Inhibitor]: ORAL, Species: RAT, Strain/Sex: SPRAGUE-DAWLEY/MALE, Target Tissue: Type of Lesion: SMALL INTESTINE: MALIGNANT TUMOR, Dose [Carcinogen]: 8 MG/KG BW 1/WK FOR 8 WK
  tumour outcome (control, treated, inhibition, significance): 90%, 83%, 8%, not significant
Carcinogen: AZOXYMETHANE, 25843-45-2, Dose [Inhibitor]: 50 MG/KG IN DIET DAILY FOR 26 WK STARTING SIMULTANEOUSLY WITH CARCINOGEN TREATMENT (STUDY DURATION: 26 WK), Route [Inhibitor]: ORAL, Species: RAT, Strain/Sex: SPRAGUE-DAWLEY/MALE, Target Tissue: Type of Lesion: LARGE INTESTINE: MALIGNANT TUMOR, Dose [Carcinogen]: 8 MG/KG BW 1/WK FOR 8 WK
  tumour outcome (control, treated, inhibition, significance): 90%, 90%, 0%, not significant
